Assay results reported in patent US8242145B2, “Cyclic diaryl ether compounds as antagonists of prostaglandin D2 receptors” (Panmira Pharmaceuticals, LLC, priority 2008, dated 2012).

Columns and labels:
human DP2 receptor = target: T1, human DP2 receptor (Homo sapiens, UniProt Q9Y5Y4); assay: DP2/CRTH2 radioligand binding assay using [3H]PGD2; details: hDP2 (CRTH2) binding assay
T1 construct: expressed in transfected cells
T1 sequence (Q9Y5Y4 1-395): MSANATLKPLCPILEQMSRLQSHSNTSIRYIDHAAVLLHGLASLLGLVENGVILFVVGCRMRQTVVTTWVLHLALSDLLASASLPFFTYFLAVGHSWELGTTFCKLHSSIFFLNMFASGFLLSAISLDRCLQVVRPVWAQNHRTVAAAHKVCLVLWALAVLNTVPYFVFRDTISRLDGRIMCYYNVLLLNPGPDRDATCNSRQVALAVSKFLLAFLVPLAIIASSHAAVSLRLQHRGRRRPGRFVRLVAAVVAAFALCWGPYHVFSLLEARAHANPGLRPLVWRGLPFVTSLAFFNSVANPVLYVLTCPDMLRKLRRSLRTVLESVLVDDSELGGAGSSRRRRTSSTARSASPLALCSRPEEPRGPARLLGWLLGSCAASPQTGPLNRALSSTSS
Description: The ability of a compound to bind to the human DP2 receptor is assessed via a radioligand binding assay using [^3H]PGD2. HEK293 cells stably expressing recombinant human DP2 are resuspended in 10 mM Hepes, 7.4 containing 1 mM DTT, lysed and centrifuged at 75,000×g to pellet the membranes. The membranes are resuspended in 10 mM Hepes, 7.4 containing 1 mM DTT and 10% glycerol to approximately 5 mg protein/ml. Membranes (2-10 μg protein/well) are incubated in 96-well plates with 1 nM [^3H]PGD2 and test compound in Assay Buffer (50 mM Hepes, 10 mM MnCl2, 1 mM EDTA, plus or minus 0.2% human serum albumin, pH 7.4) for 60 minutes at room temperature. The reactions are terminated by rapid filtration through Whatman GF/C glass fibre filter plates. The filter plates were pre-soaked in 0.33% polythylenimine for 30 minutes at room temperature then washed in Wash Buffer (50 mM Hepes, 0.5 M NaCl pH 7.4) prior to harvesting. After harvesting, the filter plates are washed 3 times with 1 ml cold Wash Buffer then dried. Scintillant is then added to the plates and the radioactivity retained on the filters is determined on a Packard TopCount (Perkin Elmer). Specific binding is determined as total radioactive binding minus non-specific binding in the presence of 10 μM PGD2. IC50s were determined using GraphPad prism analysis of drug titration curves.

[1] = target: T2, recombinant human CRTH2 receptor (Homo sapiens, UniProt Q9Y5Y4); assay: GTPγS binding assay; format: biochemical; details: +HSA; read-out: hDP2 GTPγS μM (+HSA)
T2 construct: expressed in transfected cells
T2 sequence (Q9Y5Y4 1-395): T1 sequence (Q9Y5Y4 1-395)
Description: The ability of a compound to inhibit binding of GTP to DP2 is assessed via a membrane GTPγS assay. CHO cells stably expressing the recombinant human CRTH2 receptor are resuspended in 10 mM Hepes, 7.4 containing 1 mM DTT, lysed and centrifuged at 75,000×g to pellet the membranes. The membranes are resuspended in 10 mM Hepes, 7.4 containing 1 mM DTT and 10% glycerol. Membranes (˜12.5 μg per well) are incubated in 96-well plates with 0.05 nM [^35S]-GTPγS, 80 nM PGD2, 5 μM GDP, and test compound in Assay Buffer (50 mM Hepes, pH 7.4, 100 mM NaCl, 5 mM MgCl2 and 0.2% human serum albumin) for 60 minutes at 30° C. The reactions are terminated by rapid filtration through Whatman GF/B glass fibre filter plates. The filter plates are washed 3 times with 1 ml cold Assay Buffer and dried. Scintillant is then added to the plates and the radioactivity retained on the filters is determined on a Packard TopCount (Perkin Elmer). Specific binding is determined as total radioactive binding minus non-specific binding in the absence of the ligand (80 nM PGD2). IC50s were determined using Graphpad prism analysis of drug titration curves.

human DP1 receptor = target: T3, human DP1 receptor (Homo sapiens, UniProt Q13258); assay: DP1 radioligand binding assay using [3H]BWA868C; details: hDP1 binding
T3 construct: tissue Biological Specialty Corporation; host or cells: human platelets, membranes
T3 sequence (Q13258 1-359): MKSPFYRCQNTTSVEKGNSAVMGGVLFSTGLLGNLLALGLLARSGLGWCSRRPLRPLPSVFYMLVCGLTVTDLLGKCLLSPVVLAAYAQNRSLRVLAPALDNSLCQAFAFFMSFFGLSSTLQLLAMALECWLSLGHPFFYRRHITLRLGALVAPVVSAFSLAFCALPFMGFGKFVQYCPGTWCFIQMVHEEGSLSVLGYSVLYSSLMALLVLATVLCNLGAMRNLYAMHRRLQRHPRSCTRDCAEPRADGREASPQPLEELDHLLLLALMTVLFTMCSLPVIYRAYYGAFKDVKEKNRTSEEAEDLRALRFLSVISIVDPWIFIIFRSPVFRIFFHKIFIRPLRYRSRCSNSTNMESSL
Description: The ability of a compound to bind to the human DP1 receptor was evaluated via a radioligand membrane binding assay using the DP1 selective synthetic ligand [^3H]BW A868C. Packed human platelets (Biological Specialty Corporation), were resuspended in 6 volumes of Hepes/HBSS buffer (10 mM Hepes, 1 mM DTT in Hanks Balanced Salt Solution (HBSS)), lysed and centrifuged at 75,000×g to pellet the membranes. Membranes were resuspended in Hepes/HBSS buffer to approximately 12 mg protein/ml. Membranes (20 μg protein/well) are incubated in 96-well plates with 2 nM [^3H]BWA868C and test compound in Assay Buffer (50 mM Hepes, 10 mM MnCl2, 1 mM EDTA, plus or minus 0.2% human serum albumin, pH 7.4) for 60 minutes at room temperature. The reactions are terminated by rapid filtration through Whatman GF/C glass fibre filter plates. The filter plates were pre-soaked in 0.33% polethylenimine for 30 minutes at room temperature then washed in Wash Buffer (50 mM Hepes, 0.5 M NaCl pH 7.4) prior to harvesting. After harvesting, the filter plates are washed 3 times with 1 ml cold Wash Buffer then dried. Scintillant is then added to the plates and the radioactivity retained on the filters is determined on a Packard TopCount (Perkin Elmer). Specific binding is determined as total radioactive binding minus non-specific binding in the presence of 10 μM BW A868C. IC50s were determined using GraphPad prism analysis of drug titration curves.

Structure (SMILES)	IC50 (human DP2 receptor)	IC50 [1]	IC50 (human DP1 receptor)
C[C@H]1[C@@H](c2cc(C(F)(F)F)cc(C(F)(F)F)c2)OC(=O)N1Cc1cc(Br)ccc1Oc1cccc(CC(=O)O)c1 [Compound 1-18, (3-{2-[(4S,5R)-5-(3,5-Bis-trifluoromethyl-phenyl)-4-methyl-2-oxo-oxazolidin-3-ylmethyl]-4-bromo-phenoxy}-phenyl)-acetic acid]	< 300 nM	< 0.3 µM	< 300 nM
COc1ccc(CC(=O)O)cc1Oc1ccc(Br)cc1CN1CCOC1=O [Compound 1-14, {3-[4-Bromo-2-(2-oxo-oxazolidin-3-ylmethyl)-phenoxy]-4-methoxy-phenyl}-acetic acid]	< 300 nM	< 0.3 µM	> 1000 nM
COc1ccc(CC(=O)O)cc1Oc1ccc(Cl)cc1CN1CCOC1=O [Compound 1-86, {3-[4-Chloro-2-(2-oxo-oxazolidin-3-ylmethyl)-phenoxy]-4-methoxy-phenyl}-acetic acid]	< 300 nM	< 0.3 µM	> 1000 nM
COc1ccc(CC(=O)O)cc1Oc1ccc(-c2ccccc2)cc1CN1C(=O)O[C@H](c2ccccc2)[C@@H]1C [Compound 1-35, {4-Methoxy-3-[3-((4S,5R)-4-methyl-2-oxo-5-phenyl-oxazolidin-3-ylmethyl)-biphenyl-4-yloxy]-phenyl}-acetic acid]	< 300 nM	> 1 µM	> 1000 nM
CCOc1ccc(CC(=O)O)cc1Oc1ccc(C(F)(F)F)cc1CN1C(=O)O[C@@H](c2ccccc2)[C@H]1C [Compound 1-83, {4-Ethoxy-3-[2-((4R,5S)-4-methyl-2-oxo-5-phenyl-oxazolidin-3-ylmethyl)-4-trifluoromethyl-phenoxy]-phenyl}-acetic acid]	< 300 nM	< 0.3 µM	> 1000 nM
O=C(O)Cc1cccc(Oc2ccc(Br)cc2CN2C(=O)OC[C@@H]2c2ccccc2)c1 [Compound 1-45, {3-[4-Bromo-2-((S)-2-oxo-4-phenyl-oxazolidin-3-ylmethyl)-phenoxy]-phenyl}-acetic acid]	< 300 nM	< 0.3 µM	> 1000 nM
C[C@@H]1[C@H](c2ccccc2)OC(=O)N1Cc1cc(Br)ccc1Oc1cccc(CC(=O)O)c1 [Compound 1-49, {3-[4-Bromo-2-((4R,5S)-4-methyl-2-oxo-5-phenyl-oxazolidin-3-ylmethyl)-phenoxy]-phenyl}-acetic acid]	< 300 nM	< 0.3 µM	< 300 nM
Cc1nc(C)c(-c2ccc(Oc3cccc(CC(=O)O)c3)c(CN3C(=O)O[C@H](c4ccccc4)[C@@H]3C)c2)s1 [Compound 1-75, {3-[4-(2,4-Dimethyl-thiazol-5-yl)-2-((4S,5R)-4-methyl-2-oxo-5-phenyl-oxazolidin-3-ylmethyl)-phenoxy]-phenyl}-acetic acid]	< 300 nM	0.3 to 1 µM	< 300 nM

Now from value to compound:

IC50 (human DP2 receptor)	IC50 [1]	IC50 (human DP1 receptor)	Structure (SMILES)
< 300 nM	< 0.3 µM	> 1000 nM	O=C(O)Cc1cccc(Oc2ccc(Br)cc2CN2C(=O)O[C@@H]3Cc4ccccc4[C@@H]32)c1 [Compound 2-2, {3-[4-Bromo-2-((3aS,8aR)-2-oxo-8,8a-dihydro-3aH-indeno[1,2-d]oxazol-3-ylmethyl)-phenoxy]-phenyl}-acetic acid]
< 300 nM	< 0.3 µM	> 1000 nM	COc1ccc(CC(=O)O)cc1Oc1ccc(Br)cc1CN1C(=O)O[C@H]2Cc3ccccc3[C@H]21 [Compound 2-4, {3-[4-Bromo-2-((3aR,8aS)-2-oxo-8,8a-dihydro-3aH-indeno[1,2-d]oxazol-3-ylmethyl)-phenoxy]-4-methoxy-phenyl}-acetic acid]
< 300 nM	< 0.3 µM	> 1000 nM	COc1ccc(CC(=O)O)cc1Oc1ccc(Br)cc1CN1C(=O)O[C@@H]2Cc3ccccc3[C@@H]21 [Compound 2-5, {3-[4-Bromo-2-((3aS,8aR)-2-oxo-8,8a-dihydro-3aH-indeno[1,2-d]oxazol-3-ylmethyl)-phenoxy]-4-methoxy-phenyl}-acetic acid]
